Measurements as given in patent publication US9738634B2, “Heterocyclic amide compound and herbicide” (SYNGENTA PARTICIPATIONS AG, priority 2013, dated 2017).

How the values were obtained:
Format in all cases: in vivo
bulrush [1] = assay: Test Example 2: weedkilling efficacy, growth period weed treatment in the submerged state; B: bulrush; settings: treatment dosage 252 g/ha
Outline: (§1)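 Barnyard grass, bulrush and oval-leafed pondweed sown in alluvial soil under 4 cm flooding, greenhouse 25 to 30° C. At 1-2 leaf stage, water-diluted emulsion applied to the water surface at stated g/ha dosages; effects scored 3 weeks later.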

Italian ryegrass = assay: Test Example 3: weedkilling efficacy through soil treatment; I: Italian ryegrass; settings: soil treatment, treatment dosage 315 g/ha
Outline: (§2)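 Crop and weed responses were judged three weeks after a uniform surface spray of the water-diluted emulsion at the given g/ha rate. Seeds sat beneath about 1.5 cm of sterilized diluvial soil, and boxes stood in a greenhouse at 25 to 30° C.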

transplanted rice = assay: Test Example 1: preemergent weed treatment in the submerged state, effect on crop; a: transplanted rice; settings: treatment dosage 252 g/ha
Outline: (§3)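 Pots of alluvial soil flooded 4 cm deep, sown with barnyard grass, bulrush and oval-leafed pondweed and transplanted with 2.5-leaf rice. Emulsified compound applied to the water surface on sowing day at stated g/ha; greenhouse 25–30 °C, effects assessed 3 weeks after treatment.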

crabgrass = assay: Test Example 3: weedkilling efficacy through soil treatment; D: crabgrass; settings: soil treatment, treatment dosage 315 g/ha
Outline: as §2

black-grass = assay: Test Example 3: weedkilling efficacy through soil treatment; H: black-grass; settings: soil treatment, treatment dosage 315 g/ha
Outline: as §2

chickweed = assay: Test Example 3: weedkilling efficacy through soil treatment; N: chickweed; settings: soil treatment, treatment dosage 315 g/ha
Outline: as §2

directly sown rice = assay: Test Example 3: soil treatment, effect on crop; b: directly sown rice; settings: soil treatment, treatment dosage 315 g/ha
Outline: as §2

barnyard grass [2] = assay: Test Example 2: weedkilling efficacy, growth period weed treatment in the submerged state; A: barnyard grass; settings: treatment dosage 252 g/ha
Outline: as §1

Indian mallow = assay: Test Example 3: weedkilling efficacy through soil treatment; K: Indian mallow; settings: soil treatment, treatment dosage 315 g/ha
Outline: as §2

wheat = assay: Test Example 3: soil treatment, effect on crop; e: wheat; settings: soil treatment, treatment dosage 315 g/ha
Outline: as §2

wild oat = assay: Test Example 3: weedkilling efficacy through soil treatment; G: wild oat; settings: soil treatment, treatment dosage 315 g/ha
Outline: as §2

birds-eye speedwell = assay: Test Example 3: weedkilling efficacy through soil treatment; p: birds-eye speedwell; settings: soil treatment, treatment dosage 315 g/ha
From the text: Weedkilling Efficacy Test Through Soil Treatment
Sterilized diluvial soil was introduced into 21 cm long, 13 cm wide, 7 cm deep plastic boxes, and seeds of crabgrass, green foxtail, barnyard grass, wild oat, black-grass, Italian ryegrass, common wind-grass, Indian mallow, redroot pigweed, fig-leafed goosefoot, chickweed, catchweed, birds-eye speedwell, corn, soybean, rice, wheat, beet and rapeseed were each spot-sown, and covered with about 1.5 cm of soil. Next, emulsions of compounds of the present invention prepared according to compounding example 2 were diluted with water to give the specified dosages, and applied uniformly onto the soil surface with a small sprayer. The plants were grown by placing the plastic boxes in a greenhouse at 25 to 30° C., and 3 weeks after the pesticide treatment the effect on each type of plant was investigated on the basis of the assessment criteria of test example 1.
A: barnyard grass, B: bulrush, C: oval-leafed pondweed, D: crabgrass, E: green foxtail, F: barnyard grass, G: wild oat, H: black-grass, I: Italian ryegrass, J: common wind-grass, K: Indian mallow, L: redroot pigweed, M: fig-leafed goosefoot, N: chickweed, O: catchweed, p: birds-eye speedwell, a: transplanted rice, b: directly sown rice, c: corn, d: soybean, e: wheat, f: beet, g: rapeseed
Further, pesticide dosage (g/ha) indicates the concentration regulated such that treatment was with only the stated number of grams (g), when calculated per hectare (ha).

bulrush [3] = assay: Test Example 1: weedkilling efficacy, preemergent weed treatment in the submerged state; B: bulrush; settings: treatment dosage 252 g/ha
Outline: as §3

green foxtail = assay: Test Example 3: weedkilling efficacy through soil treatment; E: green foxtail; settings: soil treatment, treatment dosage 315 g/ha
Outline: as §2

oval-leafed pondweed [4] = assay: Test Example 2: weedkilling efficacy, growth period weed treatment in the submerged state; C: oval-leafed pondweed; settings: treatment dosage 252 g/ha
Outline: as §1

corn = assay: Test Example 3: soil treatment, effect on crop; c: corn; settings: soil treatment, treatment dosage 315 g/ha
Outline: as §2

soybean = assay: Test Example 3: soil treatment, effect on crop; d: soybean; settings: soil treatment, treatment dosage 315 g/ha
Outline: as §2

oval-leafed pondweed [5] = assay: Test Example 1: weedkilling efficacy, preemergent weed treatment in the submerged state; C: oval-leafed pondweed; settings: treatment dosage 252 g/ha
Outline: as §3

redroot pigweed = assay: Test Example 3: weedkilling efficacy through soil treatment; L: redroot pigweed; settings: soil treatment, treatment dosage 315 g/ha
Outline: as §2

fig-leafed goosefoot = assay: Test Example 3: weedkilling efficacy through soil treatment; M: fig-leafed goosefoot; settings: soil treatment, treatment dosage 315 g/ha
Outline: as §2

beet = assay: Test Example 3: soil treatment, effect on crop; f: beet; settings: soil treatment, treatment dosage 315 g/ha
Outline: as §2

barnyard grass [6] = assay: Test Example 1: weedkilling efficacy, preemergent weed treatment in the submerged state; A: barnyard grass; settings: treatment dosage 252 g/ha
Outline: as §3

Row | Structure (SMILES) | B (bulrush) weedkilling efficacy grade (bulrush [1]) | I: Italian ryegrass, weedkilling efficacy grade (Italian ryegrass) | a: transplanted rice, effect on crop grade (transplanted rice) | D: crabgrass, weedkilling efficacy grade (crabgrass) | H: black-grass, weedkilling efficacy grade (black-grass) | N: chickweed, weedkilling efficacy grade (chickweed) | b: directly sown rice, effect on crop grade (directly sown rice) | A (barnyard grass) weedkilling efficacy grade (barnyard grass [2]) | K: Indian mallow, weedkilling efficacy grade (Indian mallow) | e: wheat, effect on crop grade (wheat) | G: wild oat, weedkilling efficacy grade (wild oat) | P: birds-eye speedwell, weedkilling efficacy grade (birds-eye speedwell) | B: bulrush, weed kill grade (bulrush [3]) | E: green foxtail, weedkilling efficacy grade (green foxtail) | C (oval-leafed pondweed) weedkilling efficacy grade (oval-leafed pondweed [4]) | c: corn, effect on crop grade (corn) | d: soybean, effect on crop grade (soybean) | C: oval-leafed pondweed, weed kill grade (oval-leafed pondweed [5]) | L: redroot pigweed, weedkilling efficacy grade (redroot pigweed) | M: fig-leafed goosefoot, weedkilling efficacy grade (fig-leafed goosefoot) | also measured
1 | CC(C)(C(=O)Nc1cccc(Br)n1)N1COCN(c2ccccc2)C1=O [A-2-09] | 5 (weed kill ratio 90% or more, (practically complete withering)) | 5 (weed kill ratio 90% or more, (practically complete withering)) | 0 (weed kill ratio 5% or less (practically no effect)) | 5 (weed kill ratio 90% or more, (practically complete withering)) | 5 (weed kill ratio 90% or more, (practically complete withering)) | 4 (weed kill ratio 70% or more, less than 90%) | 5 (weed kill ratio 90% or more, (practically complete withering)) | 5 (weed kill ratio 90% or more, (practically complete withering)) | 3 (weed kill ratio 40% or more, less than 70%) | 1 (weed kill ratio 5% or more, less than 20%) | 5 (weed kill ratio 90% or more, (practically complete withering)) | 5 (weed kill ratio 90% or more, (practically complete withering)) | 5 (weed kill ratio 90% or more, (practically complete withering)) | 5 (weed kill ratio 90% or more, (practically complete withering)) | 5 (weed kill ratio 90% or more, (practically complete withering)) | 3 (weed kill ratio 40% or more, less than 70%) | 3 (weed kill ratio 40% or more, less than 70%) | 5 (weed kill ratio 90% or more, (practically complete withering)) | 5 (weed kill ratio 90% or more, (practically complete withering)) | 4 (weed kill ratio 70% or more, less than 90%) | f: beet, effect on crop grade (beet): 4 (weed kill ratio 70% or more, less than 90%); A: barnyard grass, weed kill grade (barnyard grass [6]): 5 (weed kill ratio 90% or more, (practically complete withering))
2 | Cc1csc(NC(=O)C(C)(C)N2COCN(c3ccccc3)C2=O)n1 [A-1-05] | 5 (weed kill ratio 90% or more, (practically complete withering)) | 5 (weed kill ratio 90% or more, (practically complete withering)) | 0 (weed kill ratio 5% or less (practically no effect)) | 5 (weed kill ratio 90% or more, (practically complete withering)) | 5 (weed kill ratio 90% or more, (practically complete withering)) | 4 (weed kill ratio 70% or more, less than 90%) | 5 (weed kill ratio 90% or more, (practically complete withering)) | 3 (weed kill ratio 40% or more, less than 70%) | 4 (weed kill ratio 70% or more, less than 90%) | 0 (weed kill ratio 5% or less (practically no effect)) | 4 (weed kill ratio 70% or more, less than 90%) | 5 (weed kill ratio 90% or more, (practically complete withering)) | 5 (weed kill ratio 90% or more, (practically complete withering)) | 5 (weed kill ratio 90% or more, (practically complete withering)) | 3 (weed kill ratio 40% or more, less than 70%) | 1 (weed kill ratio 5% or more, less than 20%) | 0 (weed kill ratio 5% or less (practically no effect)) | 5 (weed kill ratio 90% or more, (practically complete withering)) | 5 (weed kill ratio 90% or more, (practically complete withering)) | 3 (weed kill ratio 40% or more, less than 70%) | f: beet, effect on crop grade (beet): 3 (weed kill ratio 40% or more, less than 70%); A: barnyard grass, weed kill grade (barnyard grass [6]): 5 (weed kill ratio 90% or more, (practically complete withering))
3 | CC(C)(C(=O)Nc1ccccn1)N1COCN(c2ccccc2)C1=O [A-2-01] | 5 (weed kill ratio 90% or more, (practically complete withering)) | 5 (weed kill ratio 90% or more, (practically complete withering)) | 0 (weed kill ratio 5% or less (practically no effect)) | 4 (weed kill ratio 70% or more, less than 90%) | 5 (weed kill ratio 90% or more, (practically complete withering)) | 3 (weed kill ratio 40% or more, less than 70%) | 3 (weed kill ratio 40% or more, less than 70%) | 3 (weed kill ratio 40% or more, less than 70%) | 0 (weed kill ratio 5% or less (practically no effect)) | 0 (weed kill ratio 5% or less (practically no effect)) | 2 (weed kill ratio 20% or more, less than 40%) | 5 (weed kill ratio 90% or more, (practically complete withering)) | 5 (weed kill ratio 90% or more, (practically complete withering)) | 4 (weed kill ratio 70% or more, less than 90%) | 2 (weed kill ratio 20% or more, less than 40%) | 0 (weed kill ratio 5% or less (practically no effect)) | 2 (weed kill ratio 20% or more, less than 40%) | 4 (weed kill ratio 70% or more, less than 90%) | 3 (weed kill ratio 40% or more, less than 70%) | 4 (weed kill ratio 70% or more, less than 90%) | f: beet, effect on crop grade (beet): 0 (weed kill ratio 5% or less (practically no effect)); A: barnyard grass, weed kill grade (barnyard grass [6]): 5 (weed kill ratio 90% or more, (practically complete withering))
